Data published in ChEMBL document CHEMBL1201862, “PubChem BioAssay data set” (2004).
Active and inactive are the calls of the source.

Legend:
Hexokinase-1 = Hexokinase-1 (Homo sapiens, UniProt P19367); assay: hexokinase 1 activity inhibitors, potency – biochemical, set 2, resazurin fluorescence coupled readout, selectivity assay for HKDC1 inhibitor project, SAR follow-up (AID 588356); assay type: functional
Hexokinase HKDC1 = target: T1, Hexokinase HKDC1 (Homo sapiens, UniProt Q2TB90); assay: analog inhibition of human HKDC1 activity – biochemical, set 2, SAR follow-up (AID 588355); assay type: functional
T1 sequence (Q2TB90 whole entry): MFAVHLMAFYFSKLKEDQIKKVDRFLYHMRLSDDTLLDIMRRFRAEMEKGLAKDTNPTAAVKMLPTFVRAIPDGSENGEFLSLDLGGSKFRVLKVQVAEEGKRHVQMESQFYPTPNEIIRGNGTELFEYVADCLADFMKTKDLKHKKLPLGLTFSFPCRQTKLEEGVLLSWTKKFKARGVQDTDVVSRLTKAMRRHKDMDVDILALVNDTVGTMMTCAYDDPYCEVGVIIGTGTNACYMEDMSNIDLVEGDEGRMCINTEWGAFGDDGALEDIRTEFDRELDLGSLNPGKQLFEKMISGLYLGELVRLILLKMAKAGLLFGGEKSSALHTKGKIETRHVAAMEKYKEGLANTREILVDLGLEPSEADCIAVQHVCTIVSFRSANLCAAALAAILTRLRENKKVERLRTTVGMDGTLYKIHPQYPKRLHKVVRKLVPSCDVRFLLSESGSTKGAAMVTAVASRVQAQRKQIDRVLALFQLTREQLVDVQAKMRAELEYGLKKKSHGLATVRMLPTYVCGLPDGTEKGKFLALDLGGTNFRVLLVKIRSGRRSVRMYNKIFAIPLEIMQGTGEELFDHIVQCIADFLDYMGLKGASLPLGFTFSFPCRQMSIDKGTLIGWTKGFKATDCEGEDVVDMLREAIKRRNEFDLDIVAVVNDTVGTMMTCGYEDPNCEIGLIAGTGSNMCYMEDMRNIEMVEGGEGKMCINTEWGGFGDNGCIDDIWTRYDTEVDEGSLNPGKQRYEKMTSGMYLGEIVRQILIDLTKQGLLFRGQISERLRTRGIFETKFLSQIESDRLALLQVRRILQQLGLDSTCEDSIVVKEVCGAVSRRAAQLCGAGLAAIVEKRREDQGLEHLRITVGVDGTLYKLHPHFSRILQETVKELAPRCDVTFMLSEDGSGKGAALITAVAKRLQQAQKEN

[1] = target: Delta-type opioid receptor (Homo sapiens, UniProt P41143); assay: Counterscreen for agonists of heterodimerization of the mu 1 (OPRM1) and delta 1 (OPRD1) opioid receptors: Luminescence-based cell-based high throughput dose response assay to identify agonists of OPRD1 homodimerization. [Related pubchem assays (depositor defined):AID504326, AID504355, AID504692, AID504904, AID504905]; assay type: functional
Chain of Delta-type opioid receptor (P41143 whole entry): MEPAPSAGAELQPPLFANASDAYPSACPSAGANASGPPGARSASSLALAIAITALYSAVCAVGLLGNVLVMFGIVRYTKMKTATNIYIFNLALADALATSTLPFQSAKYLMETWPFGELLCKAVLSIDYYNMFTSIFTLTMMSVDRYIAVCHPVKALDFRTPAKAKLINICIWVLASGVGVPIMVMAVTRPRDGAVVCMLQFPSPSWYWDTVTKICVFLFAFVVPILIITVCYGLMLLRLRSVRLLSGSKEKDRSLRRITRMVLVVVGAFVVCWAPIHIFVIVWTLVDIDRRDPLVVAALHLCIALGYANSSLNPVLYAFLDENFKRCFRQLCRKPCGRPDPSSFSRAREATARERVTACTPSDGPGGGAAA

Mu-type opioid receptor = Mu-type opioid receptor (Homo sapiens, UniProt P35372); assay: Counterscreen for agonists of heterodimerization of the mu 1 (OPRM1) and delta 1 (OPRD1) opioid receptors: Luminescence-based cell-based high throughput dose response assay to identify agonists of OPRM1 homodimerization.; assay type: functional;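 further: U2OS cells expressing OPRM1 and beta-arrestin as split beta-galactosidase partners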
Chain of Mu-type opioid receptor (P35372 whole entry): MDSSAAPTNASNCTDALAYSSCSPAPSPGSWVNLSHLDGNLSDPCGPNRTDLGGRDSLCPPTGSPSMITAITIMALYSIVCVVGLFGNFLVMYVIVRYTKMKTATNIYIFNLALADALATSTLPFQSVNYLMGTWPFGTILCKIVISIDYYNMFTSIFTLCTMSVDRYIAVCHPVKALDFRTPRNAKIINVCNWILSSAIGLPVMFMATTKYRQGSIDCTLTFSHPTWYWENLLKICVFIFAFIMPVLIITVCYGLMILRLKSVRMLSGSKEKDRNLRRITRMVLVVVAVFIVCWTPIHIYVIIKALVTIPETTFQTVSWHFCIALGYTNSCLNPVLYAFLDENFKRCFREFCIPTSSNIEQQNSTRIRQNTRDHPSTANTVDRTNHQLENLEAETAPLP

[2] = target: 5-hydroxytryptamine receptor 5A (Homo sapiens, UniProt P47898); assay: Counterscreen for agonists of OPRM1-OPRD1 heterodimerization: luminescence-based cell-based high throughput dose response assay to identify agonists of 5-hydroxytryptamine (serotonin) 5A receptor (HTR5A). [Related pubchem assays (depositor defined):AID504326, AID504355, AID504692, AID504904, AID504905]; assay type: functional
Chain of 5-hydroxytryptamine receptor 5A (P47898 whole entry): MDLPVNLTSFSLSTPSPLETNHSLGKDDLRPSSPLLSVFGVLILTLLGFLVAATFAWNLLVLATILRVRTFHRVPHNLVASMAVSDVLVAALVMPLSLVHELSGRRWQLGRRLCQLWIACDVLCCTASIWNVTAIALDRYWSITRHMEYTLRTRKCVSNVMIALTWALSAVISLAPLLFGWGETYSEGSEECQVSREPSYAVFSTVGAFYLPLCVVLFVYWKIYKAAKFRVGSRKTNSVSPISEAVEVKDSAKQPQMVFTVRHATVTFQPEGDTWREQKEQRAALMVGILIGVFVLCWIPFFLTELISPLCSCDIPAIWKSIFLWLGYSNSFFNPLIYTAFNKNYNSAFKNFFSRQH

[3] = target: T2, DNA repair protein RAD52 homolog (Homo sapiens, UniProt P43351); assay type: functional, biochemical
T2 sequence (P43351 whole entry): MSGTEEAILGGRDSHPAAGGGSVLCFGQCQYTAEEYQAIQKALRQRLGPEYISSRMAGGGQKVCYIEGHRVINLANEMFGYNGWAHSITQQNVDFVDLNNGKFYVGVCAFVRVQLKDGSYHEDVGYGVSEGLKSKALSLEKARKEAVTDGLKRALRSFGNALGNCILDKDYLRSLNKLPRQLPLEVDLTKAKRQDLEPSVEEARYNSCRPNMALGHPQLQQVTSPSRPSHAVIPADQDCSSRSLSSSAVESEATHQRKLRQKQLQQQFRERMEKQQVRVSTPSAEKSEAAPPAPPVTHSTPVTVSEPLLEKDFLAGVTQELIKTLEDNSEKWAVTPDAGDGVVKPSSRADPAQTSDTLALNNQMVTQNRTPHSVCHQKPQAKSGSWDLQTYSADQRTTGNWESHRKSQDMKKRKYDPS

Beta-galactosidase = Beta-galactosidase (Escherichia coli, UniProt Q8VNN2); assay: detection-enzyme interference by beta-gal modulators – biochemical, E. coli enzyme, set 3, artefact control for CCR6 antagonist project, dose response (AID 504712); assay type: functional
Chain of Beta-galactosidase (Q8VNN2 whole entry): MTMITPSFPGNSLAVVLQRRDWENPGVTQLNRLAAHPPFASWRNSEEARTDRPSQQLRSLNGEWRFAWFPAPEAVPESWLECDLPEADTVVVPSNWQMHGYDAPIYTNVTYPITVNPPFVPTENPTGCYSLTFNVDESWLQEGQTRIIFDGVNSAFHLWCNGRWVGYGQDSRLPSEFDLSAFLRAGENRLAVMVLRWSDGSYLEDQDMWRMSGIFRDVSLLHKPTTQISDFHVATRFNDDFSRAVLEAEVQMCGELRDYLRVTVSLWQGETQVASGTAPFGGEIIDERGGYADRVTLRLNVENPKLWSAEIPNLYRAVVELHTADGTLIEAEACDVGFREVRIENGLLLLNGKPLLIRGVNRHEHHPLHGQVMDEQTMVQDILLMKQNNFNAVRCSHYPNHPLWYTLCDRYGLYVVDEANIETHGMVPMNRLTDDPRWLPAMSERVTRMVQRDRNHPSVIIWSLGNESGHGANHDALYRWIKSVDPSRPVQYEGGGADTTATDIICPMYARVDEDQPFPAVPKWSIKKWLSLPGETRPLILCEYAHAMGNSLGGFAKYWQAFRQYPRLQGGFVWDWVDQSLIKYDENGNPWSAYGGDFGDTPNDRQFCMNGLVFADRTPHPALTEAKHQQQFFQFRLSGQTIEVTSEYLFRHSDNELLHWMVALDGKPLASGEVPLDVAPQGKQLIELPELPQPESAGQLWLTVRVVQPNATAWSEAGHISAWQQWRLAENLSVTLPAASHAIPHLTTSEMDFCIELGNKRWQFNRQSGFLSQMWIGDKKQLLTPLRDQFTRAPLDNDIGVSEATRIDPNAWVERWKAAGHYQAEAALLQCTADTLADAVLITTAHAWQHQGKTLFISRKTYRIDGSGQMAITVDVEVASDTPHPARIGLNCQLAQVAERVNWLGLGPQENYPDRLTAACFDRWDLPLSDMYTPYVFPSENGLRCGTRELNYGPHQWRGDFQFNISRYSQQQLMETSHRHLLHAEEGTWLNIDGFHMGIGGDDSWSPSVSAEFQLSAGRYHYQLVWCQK

cells [4] = assay type: functional
Galanin receptor type 2 = Galanin receptor type 2 (Homo sapiens, UniProt O43603); assay: Dose Response cell-based high-throughput screening assay to identify antagonists of galanin receptor 2 (GALR2). [Related pubchem assays: 828, 866 ]; assay type: functional
Chain of Galanin receptor type 2 (O43603 whole entry): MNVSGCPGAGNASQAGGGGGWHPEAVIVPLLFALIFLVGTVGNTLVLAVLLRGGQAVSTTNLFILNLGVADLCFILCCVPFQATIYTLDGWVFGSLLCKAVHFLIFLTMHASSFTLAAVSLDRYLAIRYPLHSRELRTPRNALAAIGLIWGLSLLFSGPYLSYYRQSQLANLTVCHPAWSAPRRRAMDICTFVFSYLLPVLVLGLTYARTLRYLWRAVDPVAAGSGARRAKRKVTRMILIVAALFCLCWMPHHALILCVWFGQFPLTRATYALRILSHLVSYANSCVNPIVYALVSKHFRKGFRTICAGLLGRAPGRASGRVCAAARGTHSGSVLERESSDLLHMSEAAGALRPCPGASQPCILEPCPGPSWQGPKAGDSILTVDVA

A-375 [5] = assay: proliferation inhibition in MITF-low A375 cells – cell-based, cherry-pick samples, set 2, counter-screen for MITF modulator project, dose response (AID 540335); assay type: functional; details: Homo sapiens
A-375 [6] = assay: MITF: Counter assay: A375 proliferation Measured in Cell-Based System Using Plate Reader - 2084-03_Inhibitor_Dose_DryPowder_Activity. [Related pubchem assays (depositor defined):AID488944]; assay type: functional; details: Homo sapiens
[7] = THP-1 cell cytotoxicity, dose response, cytotoxicity control for non-replicating M. tuberculosis project (AID 489025); assay type: functional
[8] = NIH-3T3 fibroblast cytotoxicity, dose response, cytotoxicity control, cell-based, fluorescence, Alamar Blue, secondary assay (AID 2327); assay type: functional;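 further: NIH-3T3 mouse fibroblasts cultured with fluconazole at 8 µg/mL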
[9] = target: T3, Microphthalmia-associated transcription factor (Homo sapiens, UniProt O75030); assay: reducers of TRPM1 reporter luminescence, concentration series – cell-based, SK-MEL-5, cherry-picked, set 3, MITF inhibitor project, dose response (AID 493073); assay type: functional;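 further: SK-MEL-5 melanoma cells with luciferase driven by the MITF target TRPM1 promoter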
T3 sequence (O75030 whole entry): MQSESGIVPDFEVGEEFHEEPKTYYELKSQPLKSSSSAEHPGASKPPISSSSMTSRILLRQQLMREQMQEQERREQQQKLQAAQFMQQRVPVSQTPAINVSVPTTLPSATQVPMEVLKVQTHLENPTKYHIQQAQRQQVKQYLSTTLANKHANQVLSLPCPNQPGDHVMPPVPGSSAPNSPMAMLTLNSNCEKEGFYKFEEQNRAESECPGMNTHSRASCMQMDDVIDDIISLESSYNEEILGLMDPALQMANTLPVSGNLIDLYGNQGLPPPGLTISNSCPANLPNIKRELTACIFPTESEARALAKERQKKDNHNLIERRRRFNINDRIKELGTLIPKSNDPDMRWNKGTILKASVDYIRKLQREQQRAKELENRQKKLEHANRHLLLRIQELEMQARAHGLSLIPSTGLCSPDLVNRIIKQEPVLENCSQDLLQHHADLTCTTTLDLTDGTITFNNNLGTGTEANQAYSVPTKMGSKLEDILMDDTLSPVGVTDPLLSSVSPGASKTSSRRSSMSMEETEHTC

[10] = fluconazole-exposed Candida albicans growth modulators – fluorescence, retest, confirmation (AID 2467); assay type: functional, cell-based
[11] = target: Heat shock protein HSP 90-alpha (Homo sapiens, UniProt P07900); assay type: functional, organism-based
NS3 = NS3 (Hepatitis C virus, UniProt A3EZJ3); assay: PubChem AID 2173; set-up: species or system Hepacivirus hominis
Chain of NS3 (A3EZJ3 whole entry): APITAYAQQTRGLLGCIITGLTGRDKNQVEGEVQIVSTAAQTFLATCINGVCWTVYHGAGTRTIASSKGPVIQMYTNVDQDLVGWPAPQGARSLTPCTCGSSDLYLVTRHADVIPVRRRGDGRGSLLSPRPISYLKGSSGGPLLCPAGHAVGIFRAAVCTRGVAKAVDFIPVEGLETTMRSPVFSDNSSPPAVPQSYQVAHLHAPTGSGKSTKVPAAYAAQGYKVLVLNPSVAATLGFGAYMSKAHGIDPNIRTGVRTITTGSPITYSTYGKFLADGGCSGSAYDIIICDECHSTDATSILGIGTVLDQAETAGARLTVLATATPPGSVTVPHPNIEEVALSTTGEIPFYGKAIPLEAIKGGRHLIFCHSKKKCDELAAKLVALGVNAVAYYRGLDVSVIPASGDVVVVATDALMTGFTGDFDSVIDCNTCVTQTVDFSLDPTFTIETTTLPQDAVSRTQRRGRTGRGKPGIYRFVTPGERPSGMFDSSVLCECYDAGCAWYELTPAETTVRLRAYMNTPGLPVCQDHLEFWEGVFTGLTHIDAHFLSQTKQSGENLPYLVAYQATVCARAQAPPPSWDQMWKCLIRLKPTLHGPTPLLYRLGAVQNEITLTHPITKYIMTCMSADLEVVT

[12] = Late-stage probe development counterscreen for inhibitors of the Hepatitis C Virus non-structural protein 3 helicase (NS3): luminescence-based cell-based dose response assay to determine whether compounds that inhibit replication of HCV RNA replicon are cytotoxic. [Related pubchem assays (depositor defined):AID1800, AID1830, AID1845, AID1943, AID1945, AID2172, AID2173, AID2474, AID2476]; assay type: functional
cells [13] = assay type: functional, cell-based
Cysteine protease ATG4B [14] = target: T4, Cysteine protease ATG4B (Homo sapiens, UniProt Q9Y4P1); assay type: functional;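 further: Fluorescence-based dose-response confirmation assay measuring inhibition of ATG4B activity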
T4 sequence (Q9Y4P1 whole entry): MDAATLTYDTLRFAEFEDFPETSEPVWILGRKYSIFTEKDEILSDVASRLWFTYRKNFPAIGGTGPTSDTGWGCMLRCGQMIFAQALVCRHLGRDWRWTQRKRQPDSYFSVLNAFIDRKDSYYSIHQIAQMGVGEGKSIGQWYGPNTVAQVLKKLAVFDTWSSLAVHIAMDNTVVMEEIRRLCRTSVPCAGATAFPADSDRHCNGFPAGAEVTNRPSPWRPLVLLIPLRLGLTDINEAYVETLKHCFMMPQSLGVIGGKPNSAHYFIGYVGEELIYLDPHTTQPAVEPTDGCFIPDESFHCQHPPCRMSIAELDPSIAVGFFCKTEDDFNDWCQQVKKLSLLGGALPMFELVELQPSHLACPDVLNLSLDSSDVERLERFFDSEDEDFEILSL

[15] = Luminescence Cell-Based Dose Retest to Confirm Inhibitors of Cancer Stem Cells. [Related pubchem assays (depositor defined):AID2717, AID2721]; assay type: functional; details: Homo sapiens
cells [16] = assay type: functional, cell-based; remark: listed apart in the source
Phospholipase A2 [17] = target: T5, Phospholipase A2 (Homo sapiens, UniProt P04054); assay: phospholipase A2 activity inhibition – biochemical, set 2, counter-screen for ATG4B inhibitor project, dose response (AID 588586); assay type: functional
T5 sequence (P04054 whole entry): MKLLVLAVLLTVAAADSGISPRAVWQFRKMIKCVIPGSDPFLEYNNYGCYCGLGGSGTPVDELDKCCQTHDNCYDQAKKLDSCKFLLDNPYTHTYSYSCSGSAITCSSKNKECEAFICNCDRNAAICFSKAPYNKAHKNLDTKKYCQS

Cysteine protease ATG4B [18] = target: T4, Cysteine protease ATG4B; assay: autophagin-1 cysteine protease inhibition – biochemical, fluorescence, set 2, dose response (AID 588584); assay type: functional
Phospholipase A2 [19] = target: T5, Phospholipase A2; assay type: functional
Galanin receptor type 3 = Galanin receptor type 3 (Homo sapiens, UniProt O60755); assay: Fluorescence-based cell-based primary high throughput dose response assay to identify antagonists of the Galanin Receptor 3 (GalR3).; assay type: functional
Chain of Galanin receptor type 3 (O60755 whole entry): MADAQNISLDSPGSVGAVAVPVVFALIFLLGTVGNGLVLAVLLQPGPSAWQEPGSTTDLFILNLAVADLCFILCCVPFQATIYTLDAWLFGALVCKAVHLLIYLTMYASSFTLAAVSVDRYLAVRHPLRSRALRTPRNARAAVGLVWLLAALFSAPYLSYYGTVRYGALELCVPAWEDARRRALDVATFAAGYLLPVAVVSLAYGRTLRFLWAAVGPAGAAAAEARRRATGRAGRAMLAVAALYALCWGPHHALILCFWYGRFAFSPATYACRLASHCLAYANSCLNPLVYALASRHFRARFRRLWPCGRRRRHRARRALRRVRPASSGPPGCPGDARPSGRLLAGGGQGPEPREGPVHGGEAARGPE

[20] = HEK-293T viability loss, compound-treated – cell-based, uHTS hits, cytotoxicity control for B/T-cell NF-kB inhibitor project, dose response (AID 489019); assay type: functional;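 further: IC50 reflects cytotoxicity as loss of cell viability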
INS1 = assay: INS-1E survival protection against cytokine death – cell-based, luminescence, retest, dose response (AID 449756); assay type: functional; details: Rattus norvegicus;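 further: cell death triggered by IL-1 beta plus TNF-alpha plus IFN-gamma mixture; protective hits raise ATP signal compared with cytokine alone wells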
[21] = target: T6, COUP transcription factor 2 (Homo sapiens, UniProt P24468); assay: Luminescence-based cell-based high throughput dose response assay to identify inhibitors of COUP-TFII (NR2F2).; assay type: functional;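 further: HEK293 cells transiently cotransfected with COUP-TFII expression vector and reporter; luciferase reporter luminescence driven by COUP-TFII from the pX2-168 reporter plasmid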
T6 sequence (P24468 whole entry): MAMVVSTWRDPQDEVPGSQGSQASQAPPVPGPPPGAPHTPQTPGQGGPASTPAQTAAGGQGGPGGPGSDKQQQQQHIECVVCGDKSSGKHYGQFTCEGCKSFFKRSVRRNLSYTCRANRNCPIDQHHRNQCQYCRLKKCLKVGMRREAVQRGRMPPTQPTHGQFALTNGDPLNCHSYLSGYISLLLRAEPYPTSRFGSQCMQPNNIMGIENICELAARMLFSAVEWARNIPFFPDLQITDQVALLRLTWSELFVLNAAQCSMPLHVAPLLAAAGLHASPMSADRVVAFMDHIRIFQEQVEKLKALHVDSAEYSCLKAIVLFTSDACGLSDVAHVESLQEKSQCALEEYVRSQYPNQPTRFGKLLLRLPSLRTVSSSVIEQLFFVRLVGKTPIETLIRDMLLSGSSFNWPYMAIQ

cells [22] = assay type: functional, cell-based; details: HEK-CNG
[23] = reduction of Shn3 3'UTR-driven luciferase in osteoblasts – cell-based, Clone20 osteoblasts, firefly luciferase, cherry-picked, dose response (AID 624132); assay type: functional;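 further: firefly luciferase luminescence from reporter carrying the Shn3 3'UTR in osteoblasts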
Jurkat = assay: blockers of NF-kB activation in T cells – Jurkat, luciferase reporter, luminescence, B- and T-cell, dose response (AID 489004); assay type: functional, cell-based; details: Homo sapiens;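 further: NF-kB luciferase reporter Jurkat cells stimulated with PMA plus ionomycin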
[24] = non-specific 3'UTR reporter inhibition in Clone20-Shn3RL – cell-based, Renilla luciferase, cherry-picked, counter-screen for Shn3 inhibitor project, dose response (AID 624133); assay type: functional
Escherichia coli = assay: microbe, parasite or virus in culture

Chain of Hexokinase-1 (P19367 whole entry): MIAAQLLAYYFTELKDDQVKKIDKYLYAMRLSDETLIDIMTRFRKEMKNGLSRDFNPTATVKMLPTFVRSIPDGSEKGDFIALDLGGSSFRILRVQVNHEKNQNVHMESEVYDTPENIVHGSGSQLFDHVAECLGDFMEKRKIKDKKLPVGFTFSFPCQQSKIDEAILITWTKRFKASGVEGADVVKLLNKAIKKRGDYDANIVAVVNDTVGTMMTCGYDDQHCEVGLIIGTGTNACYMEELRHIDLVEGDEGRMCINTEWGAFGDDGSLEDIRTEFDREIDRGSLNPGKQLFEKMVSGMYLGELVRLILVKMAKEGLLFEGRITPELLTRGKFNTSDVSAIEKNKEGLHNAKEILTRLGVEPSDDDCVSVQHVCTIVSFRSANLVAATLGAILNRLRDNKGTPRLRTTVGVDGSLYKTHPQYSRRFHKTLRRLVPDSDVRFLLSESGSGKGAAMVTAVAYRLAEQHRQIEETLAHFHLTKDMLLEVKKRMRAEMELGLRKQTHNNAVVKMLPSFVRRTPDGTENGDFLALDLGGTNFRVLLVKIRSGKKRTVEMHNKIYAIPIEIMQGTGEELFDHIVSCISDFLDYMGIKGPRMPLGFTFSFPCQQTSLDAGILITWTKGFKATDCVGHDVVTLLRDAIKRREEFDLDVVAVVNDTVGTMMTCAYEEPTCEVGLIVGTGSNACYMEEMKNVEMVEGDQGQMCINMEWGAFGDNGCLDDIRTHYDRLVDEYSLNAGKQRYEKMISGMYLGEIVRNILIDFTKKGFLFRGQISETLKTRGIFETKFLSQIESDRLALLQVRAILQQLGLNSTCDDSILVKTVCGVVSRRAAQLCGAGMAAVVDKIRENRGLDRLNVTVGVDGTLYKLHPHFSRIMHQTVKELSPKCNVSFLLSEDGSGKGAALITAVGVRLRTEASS

SMILES: Cc1ccccc1N1C(=O)c2ccccc2C1Nc1ccccc1 (centres undefined)
- IC50 (Hexokinase-1): > 80 µM (inactive)
- IC50 (Hexokinase HKDC1): > 80 µM (inactive)

SMILES: CN(C)CCCN(C(=O)c1ccc(Br)s1)c1nc2cc3c(cc2s1)OCCO3
- EC50 [1]: > 92.5 µM (inactive)
- EC50 (Mu-type opioid receptor): > 92.5 µM (inactive)
- EC50 [2]: > 92.5 µM (inactive)
- AC50 [3]: 21.1 µM (active)

SMILES: CCOC(=O)c1cc([N+](=O)[O-])c([N+](=O)[O-])cc1NC(C)=O
- IC50 (Beta-galactosidase): > 66.6 µM (inactive)
- IC50 (cells [4]): 9.64 µM (active)
- IC50 (Galanin receptor type 2): 10.3 µM (not active)
- AC50 (A-375 [5]): > 35 µM (active)
- AC50 (A-375 [6]): > 35 µM (active)
- CC50 [7]: 13.1 µM (active)
- EC50 [8]: 4.65 µM (inconclusive)
- AC50 [9]: 24.2 µM (active)
- EC50 [10]: 2.01 µM (active)
- AC50 [11]: 2.59 µM (active)

SMILES: CCOc1cccc(C2C(C(=O)c3ccc(C)o3)=C(O)C(=O)N2Cc2ccccc2)c1 (centres undefined)
- IC50 (NS3): 4.29 µM (active)
- CC50 [12]: > 100 µM (inactive)

SMILES: Cc1cc(/C=N/n2c(COc3ccccc3)nc3ccccc3c2=O)c(O)c([N+](=O)[O-])c1
- EC50 (cells [13]): 31.7 µM (active)
- IC50 (Cysteine protease ATG4B [14]): 17.2 µM (active)
- AC50 [15]: 20.9 µM (active)
- EC50 (cells [16]): > 350 µM (not active)
- IC50 (Phospholipase A2 [17]): 10.5 µM (active)
- IC50 (Cysteine protease ATG4B [18]): 22.8 µM (inactive)
- IC50 (Phospholipase A2 [19]): 13.1 µM (active)

SMILES: COc1ccc(CCNc2ncnc3sccc23)cc1OC
- IC50 (Galanin receptor type 3): 0.371 µM (active)
- IC50 [20]: > 80 µM (inactive)
- AC50 (INS1): 0.71 µM (active)
- IC50 [21]: 1.97 µM (active)
- EC50 (cells [22]): > 29.9 µM (inactive)
- AC50 [23]: < 0.26 µM (active)
- IC50 (Jurkat): > 80 µM (inactive)
- AC50 [24]: 1.5 µM (active)

SMILES: O=[N+]([O-])c1cccc(COc2cccc(CN3CCCCC3)c2)c1
- AC50 (Escherichia coli): 21.2 µM (active)
